Publication PMC3591338, “Kinetics of Isomerization and Inversion of Aspartate 58 of αA-Crystallin Peptide Mimics under Physiological Conditions” (PLoS ONE, 2013)
Where a SMILES comes first, the peptide text is derived from it.

Test: Heating experiments: succinimide formation (dehydration) from Asp isomer peptides
Format: physicochemical
Conditions: chemical stability, PBS pH 7.4, 70°C, RP-HPLC peak areas, 215 nm
Procedure: To determine the rate constant for the conversion the Asp isomers to succinimides in the T6 peptide, the T6-Lα, T6-Lβ, T6-Dα and T6-Dβ peptides were dissolved in PBS (pH7.4) and were incubated at 50, 60, 70, 80, and 90°C for 0.4–31 days.
After the incubation of the 4 isomeric peptides, these peptides were subjected to HPLC. Since the four isomeric T6 peptides are clearly separated by RP-HPLC chromatography, we can measure the relative amounts of the peptides produced by the incubation from the peak areas of the 4 isomeric peptides in the chromatogram. The results are as follows: [drawing 11] (4 - 1) [drawing 12] (4 - 2) [drawing 13] (4 - 3) [drawing 14] (4 - 4) where [L-α-Asp]%, [L-β-Asp]%, [D-α-Asp]%, and [D-β-Asp]% are relative amounts (%) of L-α-Asp, L-β-Asp, D-α-Asp and D-β-Asp, and [L-α-Asp], [L-β-Asp], [D-α-Asp] and [D-β-Asp] represent the concentration of L-α-Asp, L-β-Asp, D-α-Asp and D-β-Asp respectively, which are calculated from the peak area in the RP-HPLC chromatogram. We plotted the relative amounts against incubation time. Subsequently, we drew fitted curves for this plot as follows:f1(t) for L-α-Asp, f2(t) for L-β-Asp, f3(t) for D-α-Asp, f4(t) for D-β-Asp.
The rate constants of the conversion of the peptide isomers can be expressed as follows: [drawing 15] (5 - 1) [drawing 16] (5 - 2) [drawing 17] (5 - 3) [drawing 18] (5 - 4) where [L-succinimide]% and [D-succinimide]% represent the relative amounts of L-succinimide and D-succinimide as a percentage, t is time (day), k1 is the rate constant for the conversion of L-α-Asp to L-succinimide (day^−1), k2 is the rate constant for the conversionof L-succinimide to L-α-Asp (day^−1), k3 is the rate constant for the conversion of L-β-Asp to L-succinimide (day^−1), k4 is the rate constant for the conversion of L-succinimide to L-β-Asp (day^−1), k5 is the rate constant for the conversion of D-α-Asp to D-succinimide (day^−1), k6 is the rate constant for the conversion of D-succinimide to D-α-Asp (day^−1), k7 is the rate constant for the conversion of D-β-Asp to D-succinimide (day^−1), k8 is the rate constant for the conversion of D-succinimide to D-β-Asp (day^−1), and f1’(t), f2’(t), f3’(t) and f4’(t) are derivatives of f1(t), f2(t), f3(t) and f4(t). At t = 0 day, [L-α-Asp]% and [L-succinimide]% are 100% and 0% respectively, therefore, Eq. (5-1) can be expressed as: […]
We determined k1, k3, k5 and k7 at five temperatures (50, 60, 70, 80 and 90°C) by using Eq. (6-1), (6-2), (6-3), (6-4). The Arrhenius equation shown below gives the activation energy of the degradation reaction. [drawing 23] […] From Eq. (7), we calculated k1, k3, k5 and k7 at 37°C using k1, k3, k5 and k7 from five temperatures (50, 60, 70, 80 and 90°C).

Q: For CC[C@H](C)[C@H](NC(=O)CNC(=O)[C@H](CO)NC(=O)C[C@@H](NC(=O)[C@H](CC(C)C)NC(=O)[C@@H](NC(=O)[C@@H](N)[C@@H](C)O)C(C)C)C(=O)O)C(=O)N[C@@H](CO)C(=O)N[C@@H](CCC(=O)O)C(=O)N[C@H](C(=O)N[C@@H](CCCNC(=N)N)C(=O)O)C(C)C [T6-Dβ] (HELM PEPTIDE1{T.V.L.[O=C(O)[C@@H](CC(=O)[*:2])N[*:1]].S.G.I.S.E.V.R}$$$$V2.0), which “amount of peptide remaining after 10 days of incubation at 70°C” value (shortened to “amount of peptide remaining”) is on record?
A: Its value is “more than 80%”.

Q: For CC[C@H](C)[C@H](NC(=O)CNC(=O)[C@H](CO)NC(=O)[C@@H](CC(=O)O)NC(=O)[C@H](CC(C)C)NC(=O)[C@@H](NC(=O)[C@@H](N)[C@@H](C)O)C(C)C)C(=O)N[C@@H](CO)C(=O)N[C@@H](CCC(=O)O)C(=O)N[C@H](C(=O)N[C@@H](CCCNC(=N)N)C(=O)O)C(C)C [T6-Dα] (HELM PEPTIDE1{T.V.L.[dD].S.G.I.S.E.V.R}$$$$V2.0), which “amount of peptide remaining” value is on record?
A: Its value is 40%.

Q: Which “amount of peptide remaining” value does the source give for CC[C@H](C)[C@H](NC(=O)CNC(=O)[C@H](CO)NC(=O)C[C@H](NC(=O)[C@H](CC(C)C)NC(=O)[C@@H](NC(=O)[C@@H](N)[C@@H](C)O)C(C)C)C(=O)O)C(=O)N[C@@H](CO)C(=O)N[C@@H](CCC(=O)O)C(=O)N[C@H](C(=O)N[C@@H](CCCNC(=N)N)C(=O)O)C(C)C [T6-Lβ] (HELM PEPTIDE1{T.V.L.[O=C(O)[C@H](CC(=O)[*:2])N[*:1]].S.G.I.S.E.V.R}$$$$V2.0) here?
A: The value was “more than 80%”.

Q: For CC[C@H](C)[C@H](NC(=O)CNC(=O)[C@H](CO)NC(=O)[C@H](CC(=O)O)NC(=O)[C@H](CC(C)C)NC(=O)[C@@H](NC(=O)[C@@H](N)[C@@H](C)O)C(C)C)C(=O)N[C@@H](CO)C(=O)N[C@@H](CCC(=O)O)C(=O)N[C@H](C(=O)N[C@@H](CCCNC(=N)N)C(=O)O)C(C)C [T6-Lα] (H-TVLDSGISEVR-OH), which “amount of peptide remaining” value is on record?
A: The value was 30%.
